Results taken from US20240246920A1, “TRIAZOLE DERIVATIVES WITH ANTIFUNGAL ACTIVITY” (King's College London, priority 2020, published 2024).
Converted amounts (≈) assume the structure as drawn. Like-named read-outs stand apart in the source and are kept apart here.

Tests used:
C. parapsilosis NCPF3209 = experiment: microbe, parasite or virus in culture; assay type: cell-based, Candida parapsilosis; conditions: Lodderomyces parapsilosis
Procedure: (§1) The minimum inhibitory concentration of test compounds were determined in a panel of Candida species (see Table 4 below), using the a serial dilution method in 96-well plates using the following protocol.
(§2) Starter cultures of fungal strains to be tested were grown in 3 mL of RPMI 2% glucose media incubated at 37° C. with shaking at 200 rpm overnight. The culture media used was 900 mL H2O; 10.4 g RPMI 1640 (with L-glutamine and a pH indicator but without bicarbonate); 34.5 g MOPS and 18 g glucose. The pH of the media was adjusted to 7.0 with 1 M sodium hydroxide.
(§3) Solutions of the compound to be tested were prepared by dissolving the compound in DMSO and subsequently into media to the desired concentrations. […] The last two rows of each plate were control rows containing the culture media alone and the media plus fungi.
(§4) The fungi starter cultures were diluted 1:10 in water in cuvettes. This was then further diluted to an optical density (OD600) of 0.01 in media. 100 μL of the fungi was added to each well giving a starting concentration of fungus of 0.5-5×10^5/mL. One species of fungus was used on each plate. The plates were then held at 37° C. for 24 hours.
(§5) A plate reader was used to measure growth in each well at OD530 nm and the MIC was determined for each test compound. The MIC is defined as the lowest concentration giving rise to inhibition of ≥50% of that of the drug-free control well containing the fungus and media.

C. albicans NCPF3281 = experiment: Candida panel MIC, serial dilution in 96-well plates; assay type: cell-based, Candida albicans; conditions: Candida albicans, NCPF3281; Table 4, common panel; 24 hours, ≥50% inhibition; read-out: MIC C. albicans NCPF3281
Procedure: as §1, §2
(§6) Solutions of the compound to be tested were prepared by dissolving the compound in DMSO and subsequently into media to the desired concentrations. 200 μL of compound solution was then added to the wells of the 96-well plate using a serial dilution method row-by row of the plate to give a compound concentration gradient across the plate of from 128 μg/mL to 0.25 μg/mL. The last two rows of each plate were control rows containing the culture media alone and the media plus fungi.
as §4, §5

C. auris 8984 = experiment: as above; assay type: cell-based, Candida auris; conditions: Candidozyma auris, 8984; Table 4, extended panel; 24 hours, ≥50% inhibition; read-out: MIC C. auris 8984
Procedure: as §1, §2, §3, §4, §5
(§7) The Candida auris strains shown in Table 7 were either taken from the National Collection of Pathogenic Fungi (NCPF) or collected as part of ongoing surveillance studies. The strains were characterised as follows.

C. auris 8971 = experiment: as above; assay type: cell-based, Candida auris; conditions: Candidozyma auris, 8971; Table 4, extended panel; 24 hours, ≥50% inhibition; read-out: MIC C. auris 8971
Procedure: as §1, §2, §3, §4, §5, §7

C. auris 8977 = experiment: as above; assay type: cell-based, Candida auris; conditions: Candidozyma auris, 8977; Table 4, extended panel; 24 hours, ≥50% inhibition; read-out: MIC C. auris 8977
Procedure: as §1, §2, §3, §4, §5, §7

Candida auris TDG1102 = experiment: as above; assay type: cell-based; conditions: Candidozyma auris, TDG1102; Table 4, extended panel; 24 hours, ≥50% inhibition; read-out: MIC Candida auris TDG1102
Procedure: as §1, §2, §6, §4, §5

C. tropicalis NCPF8760 = experiment: as above; assay type: cell-based
Procedure: as §1, §2, §6, §4, §5

C. auris TDG1912 = experiment: as above; assay type: cell-based; conditions: Candidozyma auris, TDG1912; Table 4; 24 hours, ≥50% inhibition; read-out: MIC C. auris TDG1912
Procedure: as §1, §2, §6, §4, §5

Candida auris TDG2512 = experiment: as above; assay type: cell-based; conditions: Candidozyma auris, TDG2512; Table 4, extended panel; 24 hours, ≥50% inhibition; read-out: MIC Candida auris TDG2512
Procedure: as §1, §2, §6, §4, §5

Candida auris TDG2211 = experiment: microbe, parasite or virus in culture; assay type: cell-based; conditions: Candidozyma auris, TDG2211; Table 4, extended panel; 24 hours, ≥50% inhibition; read-out: MIC Candida auris TDG2211
Procedure: as §1, §2, §3, §4, §5, §7

Candida auris TDG2506 = experiment: microbe, parasite or virus in culture; assay type: cell-based; conditions: Candidozyma auris, TDG2506; Table 4, extended panel; 24 hours, ≥50% inhibition; read-out: MIC Candida auris TDG2506
Procedure: as §1, §2, §3, §4, §5, §7

C. krusei NCPF3876 = experiment: microbe, parasite or virus in culture; assay type: cell-based, Candida krusei; conditions: Pichia kudriavzevii
Procedure: as §1, §2, §3, §4, §5

C. glabrata NCPF8018 = experiment: Candida panel MIC, serial dilution in 96-well plates; assay type: cell-based, Candida glabrata; conditions: Nakaseomyces glabratus
Procedure: as §1, §2, §3, §4, §5

[1] = NCPF3209, read-out: MIC C. Parapsilosis NCPF3209
[2] = NCPF3209, Table 4, common panel, 24 hours, ≥50% inhibition, read-out: MIC C. parapsilosis NCPF3209
[3] = NCPF8760, Table 4, common panel, 24 hours, ≥50% inhibition, read-out: MIC C. tropicalis NCPF8760
[4] = NCPF8760, read-out: MIC C. Tropicalis NCPF8760
[5] = NCPF3876, read-out: MIC C. Krusei NCPF3876
[6] = NCPF3876, Table 4, common panel, 24 hours, ≥50% inhibition, read-out: MIC C. krusei NCPF3876
[7] = NCPF8018, read-out: MIC C. Glabrata NCPF8018
[8] = NCPF8018, Table 4, common panel, 24 hours, ≥50% inhibition, read-out: MIC C. glabrata NCPF8018

SMILES	MIC (C. parapsilosis NCPF3209; [1]) [ng/mL]	MIC (C. parapsilosis NCPF3209; [2]) [ng/mL]	MIC (C. albicans NCPF3281) [ng/mL]	MIC (C. auris 8984) [µg/mL]	MIC (C. auris 8971) [µg/mL]	MIC (C. auris 8977) [ng/mL]	MIC (Candida auris TDG1102) [µg/mL]	MIC (C. tropicalis NCPF8760; [3]) [µg/mL]	MIC (C. tropicalis NCPF8760; [4]) [µg/mL]	MIC (C. auris TDG1912) [µg/mL]	MIC (Candida auris TDG2512) [ng/mL]	MIC (Candida auris TDG2211) [ng/mL]	MIC (Candida auris TDG2506) [µg/mL]	MIC (C. krusei NCPF3876; [5]) [µg/mL]	MIC (C. krusei NCPF3876; [6]) [µg/mL]	MIC (C. glabrata NCPF8018; [7]) [µg/mL]	MIC (C. glabrata NCPF8018; [8]) [µg/mL]
OC(CN1CCCC(Nc2ccc(Cc3ccccc3)cc2)CC1)(Cn1cncn1)c1ccc(F)cc1F (stereo not shown) [Example 9, 1-(4-((4-Benzylphenyl)amino)azepan-1-yl)-2-(2,4-difluorophenyl)-3-(1H-1,2,4-triazol-1-yl)propan-2-ol]	≤ 0.06	≤ 0.06	< 4	0.12 (≈ 0.232 µM)	0.12 (≈ 0.232 µM)	0.1 (≈ 0.000193 µM)	1 (≈ 1.93 µM)	0.125 (≈ 0.241 µM)	0.5 (≈ 0.966 µM)	0.5 (≈ 0.966 µM)	125 (≈ 0.241 µM)	250 (≈ 0.483 µM)	0.5 (≈ 0.966 µM)	0.008 (≈ 0.0155 µM)	0.008 (≈ 0.0155 µM)	0.125 (≈ 0.241 µM)	0.125 (≈ 0.241 µM)
OC(CN1CCCCN(c2cnccn2)CC1)(Cn1cncn1)c1ccc(F)cc1F (stereo not shown) [Example 17, 2-(2,4-Difluorophenyl)-1-(4-(pyrazin-2-yl)-1,4-diazocan-1-yl)-3-(1H-1,2,4-triazol-1-yl)propan-2-ol]		≤ 125	≤ 125					4 to 8 (≈ 9.31 to 18.6 µM)		4 to 16 (≈ 9.31 to 37.3 µM)					4 (≈ 9.31 µM)		0.12 (≈ 0.279 µM)
CC(C)COc1ccc(NC2CCN(CC(O)(Cn3cncn3)c3ccc(F)cc3F)CC2)cc1 (stereo not shown) [Example 84]	0.98 to 1.95 (≈ 0.00202 to 0.00402 µM)	0.98 to 1.95 (≈ 0.00202 to 0.00402 µM)	1.95 (≈ 0.00402 µM)	0.03 (≈ 0.0618 µM)	0.00195 to 0.00391 (≈ 0.00402 to 0.00805 µM)	3.91 (≈ 0.00805 µM)	0.0156 (≈ 0.0321 µM)	0.125 (≈ 0.257 µM)	0.125 (≈ 0.257 µM)		1.95 to 3.91 (≈ 0.00402 to 0.00805 µM)	0.98 to 1.95 (≈ 0.00202 to 0.00402 µM)	0.03 (≈ 0.0618 µM)	0.03 (≈ 0.0618 µM)	0.03 (≈ 0.0618 µM)	0.06 (≈ 0.124 µM)	0.06 (≈ 0.124 µM)
COc1ccc(Oc2ccc(NC3CCN(CC(O)(Cn4cncn4)c4ccc(F)cc4F)CC3)cc2)cc1 (stereo not shown) [Example 86]	0.98 to 7.8 (≈ 0.00183 to 0.0146 µM)	0.98 to 7.8 (≈ 0.00183 to 0.0146 µM)	7.8 to 15.6 (≈ 0.0146 to 0.0291 µM)	0.0078 to 0.125 (≈ 0.0146 to 0.233 µM)	0.00098 to 0.03 (≈ 0.00183 to 0.056 µM)	0.98 to 3.9 (≈ 0.00183 to 0.00728 µM)	0.015 to 0.0625 (≈ 0.028 to 0.117 µM)	0.125 (≈ 0.233 µM)	0.125 (≈ 0.233 µM)		7.8 (≈ 0.0146 µM)	7.8 (≈ 0.0146 µM)	0.0625 (≈ 0.117 µM)	0.015 to 0.125 (≈ 0.028 to 0.233 µM)	0.015 to 0.125 (≈ 0.028 to 0.233 µM)	0.5 (≈ 0.934 µM)	0.5 (≈ 0.934 µM)
